Reference: article PMC10979003, “Development and crystal structures of a potent second-generation dual degrader of BCL-2 and BCL-xL” (Nature Communications, 2024)

Assays:
[1] = target: T1, BCL-xL (Homo sapiens, UniProt Q07817); experiment: Immunoblot degradation of BCL-xL in Jurkat cells; format: cell-based; conditions: for DC50: 16 h treatment, immunoblot
T1 construct: endogenous in cells; host or cells: Jurkat (ATCC TIB-152)
Procedure: The data are presented as mean ± s.d. from three replicate cell cultures in a representative experiment for Jurkat cells. h Left, WH244 induces polyubiquitination of WT, K22R BCL-2 and to some extent K17R but not K17/22R BCL-2 in 293T cells. 293T cells were co-transfected as indicated with Flag-BCL−2 WT or mutants and HA-tagged ubiquitin (HA-Ub) plasmids. After 36 h, cells were pretreated with MG132 (10 µM) for 2 h and then treated with or without WH244 (1 μM) for 5 h. The Flag-tagged proteins were immunoprecipitated (IP) and immunoblotted with HA or Flag antibody. Right, The input blot for this assay. Data are a representative of two independent experiments. Source data are provided as Source Data file.
Cells were collected, washed once with ice-cold phosphate-buffered saline, pH 7.2 (PBS, cat. no. 20012027; Thermo Fisher Scientific) and lysed in RIPA lysis buffer (Cat. No. BP-115DG, Boston Bio Products, Ashland, MA, USA) supplemented with protease and phosphatase inhibitor cocktails (Cat. No. PPC1010, Sigma-Aldrich, St. Louis, MO, USA) through sonication. The samples were centrifuged at 15,000 × g for 5 min and the supernatants were transferred into a new tube. The protein concentration in the supernatants was determined using the Pierce BCA protein Assay kit (cat. no. 23225, Thermo Fisher Scientific). The protein concentration was normalized, and the samples were reduced in 4× Laemmli’s SDS-sample buffer (cat. no. BP-110R, Boston Bio Products) and denatured at 95 °C for 5 min. An equal amount of protein samples (20–40 μg per lane) were resolved using precast 4–20% Tris-glycine gels (Mini-PROTEAN TGX, cat. no. 456–1094, Bio-Rad), and resolved proteins were transferred onto 0.2-μm pore size polyvinylidene difluoride (PVDF) blotting membranes (cat. no. LC2002, Thermo Fisher Scientific) using mini trans-blot electrophoretic transfer cell (Bio-Rad). The membranes were blocked with non-fat dry milk (5% wt/vol) in 1×Tris- buffered saline-Tween-20 (TBST) for 1 h at room temperature, and were subsequently probed with primary antibodies at a pre-determined optimal concentration in non-fat dry milk (5% wt/vol in TBST) overnight at 4 °C. The membranes were washed three times (15 min each) in TBST and then incubated with horse radish peroxidase (HRP)-conjugated secondary antibodies for 1 h at room temperature. Following sufficient washing with TBST, the membranes were exposed with ECL Western Blotting Substrate (Bio-Rad), and the signal was detected using the ChemiDoc MP Imaging System (Bio-Rad) and quantified using the ImageJ (v1.53a) software from NIH. Antibodies were purchased from Cell Signaling Technologies (CST) and the dilutions are as follows: BCL-xL (Cat. No. 2762S, 1:1000) and BCL-2 (Cat. No. 2870S, 1:1000). β-actin antibody was purchased from MP Biomedicals (Cat. No. 8691001, 1:20,000).

[2] = target: T2, HiBiT-BCL-2 (Homo sapiens, UniProt P10415); experiment: HiBiT degradation assay, HiBiT knock-in BCL-2 HeLa cells; format: cell-based; conditions: for Time to degrade 50% of BCL-2: 100 nM compound
T2 construct: endogenous in cells; host or cells: HeLa (ATCC CCL-2), CRISPR-Cas9 HiBiT knock-in clone
T2 sequence (P10415 whole entry): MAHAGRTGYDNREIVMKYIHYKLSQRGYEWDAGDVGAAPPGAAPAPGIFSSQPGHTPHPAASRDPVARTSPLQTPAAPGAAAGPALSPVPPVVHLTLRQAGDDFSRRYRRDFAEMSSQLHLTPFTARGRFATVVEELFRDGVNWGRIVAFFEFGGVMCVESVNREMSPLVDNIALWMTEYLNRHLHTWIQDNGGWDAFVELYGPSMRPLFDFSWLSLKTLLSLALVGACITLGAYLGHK
Procedure: The Alt-R CRISPR RNA (crRNA):Alt-R trans-activating crRNA (tracrRNA) duplexes for targeting BCL-xL or BCL-2 were prepared by mixing 0.5 nmol crRNA and 0.5 nmol tracrRNA in 25 μL of Nuclease-Free Duplex Buffer (Integrated DNA Technologies, IDT) by incubation at 95 °C for 5 min and cooling to RT. Single-stranded ultramer DNA oligonucleotides (ssODN) (IDT) were used as the homology directed repair (HDR) donor templates. The sequences of gRNAs and ssODN templates are listed in Supplementary Table 2. Ribonucleoprotein (RNP) complexes with recombinant Streptococcus pyogenes Cas9 protein (IDT) and crRNA:tracrRNA duplex were assembled by incubating 100 pmol of Cas9 and 120 pmol of gRNA for 10–20 min at room temperature. HeLa (2 × 10^5) cells were resuspended in 10 μL of Neon^TM transfection system buffer R from the Neon^TM transfection system 10 mL kit (Thermo Fisher), and the RNP complex along with 100 pmol ssODN template were electroporated into HeLa cells with the Neon^TM transfection system (Thermo Fisher). After electroporation, HeLa cells were transferred to a 12-well plate for culturing. Edited pooled cells were analyzed for HiBiT insertion by assaying for luminescence using Nano-Glo® HiBiT lytic detection system (Cat #N3040, Promega) in a Biotek’s Synergy Neo2 multimode plate reader (Biotek) 48–72 h after electroporation and single clones were selected by serial dilution.
HeLa HiBiT-BCL-xL and HeLa HiBiT-BCL-2 cells (2 × 10^4/well in 80 μL DMEM) were seeded into white 96-well tissue culture plates and incubated overnight at 37 °C, 5% CO2. For dose curve testing, the following day, serial diluted compounds were added into the medium and then plates were incubated at 37 °C, 5% CO2, for 6 h. For time course testing, in the following day, compounds with indicated concentrations were added into the medium at different time points. After treatment, the luminescence signals were measured using Nano-Glo® HiBiT lytic detection system (Cat #N3040, Promega) in a Biotek’s Synergy Neo2 multimode plate reader (Biotek).

T1 sequence (Q07817 whole entry): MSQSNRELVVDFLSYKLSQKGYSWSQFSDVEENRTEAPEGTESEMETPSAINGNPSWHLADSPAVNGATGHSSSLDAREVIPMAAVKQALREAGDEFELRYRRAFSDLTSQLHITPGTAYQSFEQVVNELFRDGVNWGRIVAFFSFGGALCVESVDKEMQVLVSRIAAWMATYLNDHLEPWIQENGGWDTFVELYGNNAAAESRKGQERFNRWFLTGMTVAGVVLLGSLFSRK

SMILES | DC50 ([1]; Jurkat cells) [nM] | Time to degrade 50% of BCL-2 [2] | Earliest time at which BCL-xL degradation is seen ([1]; 0.1 μM WH244, Jurkat cells) [h] | Time to nearly complete degradation of BCL-xL ([1]; 0.1 μM WH244, Jurkat cells) [h] | Time for BCL-xL level to recover to pretreatment level after removal of degrader ([1]; 0.1 μM WH244 for 16 h, then fresh medium, Jurkat cells) [h] | DC50 fold better than 753b (BCL-xL) ([1]; Jurkat cells, 16 h) | Potency for inducing degradation of BCL-2 (comparison) ([2]; 6 h treatment)
Cc1ncsc1-c1ccc(C(C)NC(=O)C2CC(O)CN2C(=O)C(NC(=O)CCCCCCC(=O)N2CCN(CC3(C)CCC(c4ccc(Cl)cc4)=C(CN4CCN(c5ccc(C(=O)NS(=O)(=O)c6ccc(NC(CCN7CCOCC7)CSc7ccccc7)c(S(=O)(=O)C(F)(F)F)c6)cc5)CC4)C3)CC2)C(C)(C)C)cc1 (stereo not drawn) [753b] | 3.7 | > 480 min |  |  |  |  | 
Cc1ncsc1-c1ccc([C@H](C)NC(=O)[C@@H]2C[C@@H](O)CN2C(=O)[C@@H](NC(=O)CN2CCN(CC(=O)N3CCN(C[C@]4(C)CCC(c5ccc(Cl)cc5)=C(CN5CCN(c6ccc(C(=O)NS(=O)(=O)c7ccc(N[C@H](CCN8C[C@@H]9C[C@H]8CO9)CSc8ccccc8)c(S(=O)(=O)C(F)(F)F)c7)cc6)CC5)C4)CC3)CC2)C(C)(C)C)cc1 [WH244] | 0.6 | about 250 min | 1 | 4 | 24 to 48 | ~ 6.2 fold | more potent than 753b
